The source of these data is patent publication US10100052B2, “Compounds for the treatment of hepatitis B virus infection” (Gilead Sciences, Inc., priority 2016, dated 2018).

Data set [1] in a line: MT-4 cytotoxicity assay. The data set is classed as cell-based. Conditions: human, five days incubation, Cell Titer Glo. On the procedure:
The MT-4 cell line (HTLV-1 transformed, human T lymphoblastoid cells) was obtained from the NIH AIDS Reagent program (Bethesda, Md.). MT-4 cells were maintained in RPMI-1640 supplemented with 10% fetal bovine serum (FBS, Hyclone, Logan, Utah). All cell culture media were also supplemented with 100 Units/mL penicillin, 100 μg/mL streptomycin (Gibco). For the MT-4 cytotoxicity assay, 0.4 μL of serially diluted solutions of certain compounds disclosed herein were added to 40 μL of cell maintenance media in 384-well black, solid bottom plate using a Biomek FX workstation (Beckman Coulter). Two thousand cells in 35 μL were added to each well using a Biotek uFlow Workstation (Biotek). Each assay plate contained 10 μM puromycin (final concentration) and 0.5% DMSO in RPMI-1640 as positive and negative controls, respectively. Assay plates were incubated for five days at 37° C. in an incubator set at 5% CO2 and 90% humidity. After five days, 22 μL of Cell Titer Glo reagent (Promega) was added to the assay plates with a Biotek uFlow Workstation. Plates were subsequently placed on a Perkin Elmer Envision Plate Reader for five minutes before the luminescence signal was read. CC50 values were calculated by non-linear regression using Pipeline Pilot software by applying a four parameter fit equation (Accelrys, San Diego, Calif.) and are reported in the following Table 2.
A general note: Cellular ATP, detected with luciferase, serves as a proxy for viable cell number.

Data set [2] has as its system HBsAg. Nature of the data set: PHH assay for inhibition of HBsAg. It is filed as cell-based, genotype D (AD38-derived) HBV in primary human hepatocytes. The note with it: Hepatitis B virus, 288 h, read-out: HBsAg EC50. On the procedure: Primary human hepatocytes (PHH) (Bioreclamation IVT) were plated on collagen-coated flasks using Plating Media (Life Technologies) containing William's Medium E supplemented with 1% penicillin/streptomycin, 4 μg/mL human recombinant insulin, 2 mM GlutaMAX, 15 mM HEPES, 1 μM dexamethasone, 5% fetal bovine serum, and 0.2% Torpedo Antibiotic Mix (Bioreclamation IVT). After a 4-hour incubation at 37° C., cells were switched to Maintenance Media (Life Technologies) containing William's Medium E supplemented with 0.5% penicillin/streptomycin, 6.25 µg/mL human recombinant insulin, 6.25 μg/mL human transferrin, 6.25 ng/mL selenous acid, 1.25 mg/mL bovine serum albumin, 5.35 μg/mL linoleic acid, 2 mM GlutaMAX, 15 mM HEPES, 0.1 μM dexamethasone, 2% fetal bovine serum, 2% DMSO, and 0.2% Torpedo Antibiotic Mix (Bioreclamation IVT). On the next day, PHH were infected with 500 genome equivalent per cell of genotype D (AD38-derived) HBV in Maintenance Media supplemented with 4% PEG 8000 (Promega). After 24 hour incubation, cells were washed three times with William's Medium E and fed with fresh Maintenance Media. At 3 days after infection, infected PHH cells were seeded on 96-well plates pre-coated with collagen at a density of 65000 cells per well containing serially diluted solutions of certain compounds disclosed herein or DMSO (1% final concentration) in a final volume of 125 μl of Maintenance Media (Life Technologies) containing William's Medium E supplemented with 0.5% penicillin/streptomycin, 6.25 μg/mL human recombinant insulin, 6.25 μg/mL human transferrin, 6.25 ng/mL selenous acid, 1.25 mg/mL bovine serum albumin, 5.35 μg/mL linoleic acid, 2 mM GlutaMAX, 15 mM HEPES, 0.1 μM dexamethasone, 5% fetal bovine serum, 1 mM 1-amininobenzotriaole, and 0.2% Torpedo Antibiotic Mix (Bioreclamation IVT). Media with compounds was replenished every 2-3 days. After an incubation time of 12 days, secreted HBsAg in the supernatant were measured using a multiplex chemiluminescent (Mesoscale discovery, MSD) assay using capture and detection antibody pairs specific for HBsAg. Comparative Example 1 and Comparative Example 2 have the following structures and were prepared according to International Publication No. WO 2015/113990.

As a reminder, the CC50 is the concentration at which the toxic effect on the cells reaches its halfway point. High values mean lower toxicity to the cells, low ones greater toxicity to the cells. In data set [1] (MT-4 cells), `COCCCOc1cc2c(cc1Cl)-c1cc(=O)c(C(=O)O)cn1N(C(C)(C)C(F)(F)F)C2` [Example 9, 10-chloro-9-(3-methoxypropoxy)-2-oxo-6-(1,1,1-trifluoro-2-methylpropan-2-yl)-6,7-dihydro-2H-pyrido[2,1-a]phthalazine-3-carboxylic acid] returned a CC50 at 5 days greater than 10 µM.

As usually defined, the EC50 is the concentration giving half of the maximal effect. With `COCCCOc1cc2c(cc1Cl)-c1cc(=O)c(C(=O)O)cn1N(C(C)(C)COC)C2` [Example 8, 10-chloro-6-(1-methoxy-2-methylpropan-2-yl)-9-(3-methoxypropoxy)-2-oxo-6,7-dihydro-2H-pyrido[2,1-a]phthalazine-3-carboxylic acid], in data set [1] (MT-4 cells), the half-maximal cytotoxic concentration (CC50) at 5 days is greater than 10 µM. Also, in data set [2], the EC50 stood at 11 nM.

As for `COCCCOc1cc2c(cc1Cl)-c1cc(=O)c(C(=O)O)cn1N(C1(C)CC1)C2` [Example 6, 10-chloro-9-(3-methoxypropoxy)-6-(1-methylcyclopropyl)-2-oxo-6,7-dihydro-2H-pyrido[2,1-a]phthalazine-3-carboxylic acid], the CC50 at 5 days in data set [1] (MT-4 cells) was greater than 10 µM.

Compound `COCCCOc1cc2c(cc1Cl)-c1cc(=O)c(C(=O)O)cn1N(CC(C)(C)C)C2` [Example 18, 10-chloro-9-(3-methoxypropoxy)-6-neopentyl-2-oxo-6,7-dihydro-2H-pyrido[2,1-a]phthalazine-3-carboxylic acid] displayed a CC50 at 5 days in data set [1] (MT-4 cells) greater than 10 µM. In addition, the half-maximal effective concentration (EC50) in data set [2] was determined as 168 nM.

In turn, `COCCCOc1cc2c(cc1Cl)-c1cc(=O)c(C(=O)O)cn1N(C(C)(C)CO)C2` [Example 16, 10-chloro-6-(1-hydroxy-2-methylpropan-2-yl)-9-(3-methoxypropoxy)-2-oxo-6,7-dihydro-2H-pyrido[2,1-a]phthalazine-3-carboxylic acid] had a CC50 at 5 days in data set [1] (MT-4 cells) greater than 10 µM. Moreover, the 50% effective concentration (EC50) in data set [2] was found to be 66.9 nM.

With `COCCCOc1cc2c(cc1Cl)-c1cc(=O)c(C(=O)O)cn1N(C13CC(C1)C3)C2` [Example 5, 6-(bicyclo[1.1.1]pentan-1-yl)-10-chloro-9-(3-methoxypropoxy)-2-oxo-6,7-dihydro-2H-pyrido[2,1-a]phthalazine-3-carboxylic acid], the CC50 at 5 days in data set [1] (MT-4 cells) was greater than 10 µM. For the same compound, in data set [2], the concentration giving a half-maximal response (EC50) amounted to 4 nM.

Regarding `COCCCOc1cc2c(cc1OC)-c1cc(=O)c(C(=O)O)cn1N(C(C)(C)COC)C2` [Example 11, 10-methoxy-6-(1-methoxy-2-methylpropan-2-yl)-9-(3-methoxypropoxy)-2-oxo-6,7-dihydro-2H-pyrido[2,1-a]phthalazine-3-carboxylic acid], in data set [1] (MT-4 cells), the CC50 at 5 days is greater than 10 µM.

`COCCCOc1cc2c(cc1Cl)-c1cc(=O)c(C(=O)O)cn1N(C)C2` [Example 1, 10-chloro-9-(3-methoxypropoxy)-6-methyl-2-oxo-6,7-dihydro-2H-pyrido[2,1-a]phthalazine-3-carboxylic acid] returned a half-maximal cytotoxic concentration (CC50) at 5 days in data set [1] of 8.9 µM. The half-maximal effective concentration (EC50) in data set [2] came out at 363 nM.

For the compound `COCCCOc1cc2c(cc1Cl)-c1cc(=O)c(C(=O)O)cn1N(C1(C)CCC1)C2` [Example 7, 10-chloro-9-(3-methoxypropoxy)-6-(1-methylcyclobutyl)-2-oxo-6,7-dihydro-2H-pyrido[2,1-a]phthalazine-3-carboxylic acid], the cytotoxic concentration (CC50) at 5 days in data set [1] (MT-4 cells) is greater than 10 µM. Besides, the EC50 in data set [2] was 6.8 nM.

`CC(C)(C)N1Cc2cc(OCCOCC(F)(F)F)c(Cl)cc2-c2cc(=O)c(C(=O)O)cn21` [Example 13, 6-(tert-butyl)-10-chloro-2-oxo-9-(2-(2,2,2-trifluoroethoxy)ethoxy)-6,7-dihydro-2H-pyrido[2,1-a]phthalazine-3-carboxylic acid] yielded a half-maximal cytotoxic concentration (CC50) at 5 days in data set [1] (MT-4 cells) of 5.2 µM. Besides, in data set [2], the EC50 was determined as 58.8 nM.

The compound `COCCCOc1cc2c(cc1Cl)-c1cc(=O)c(C(=O)O)cn1N(C1(C(F)(F)F)CC1)C2` [Example 3, 10-chloro-9-(3-methoxypropoxy)-2-oxo-6-(1-(trifluoromethyl)cyclopropyl)-6,7-dihydro-2H-pyrido[2,1-a]phthalazine-3-carboxylic acid] came in with a half-maximal cytotoxic concentration (CC50) at 5 days in data set [1] (MT-4 cells) greater than 10 µM. Also, the EC50 in data set [2] was 3.1 nM.

The compound `CCC(C)(C)N1Cc2cc(OCCCOC)c(Cl)cc2-c2cc(=O)c(C(=O)O)cn21` [Example 17, 10-chloro-9-(3-methoxypropoxy)-2-oxo-6-(tert-pentyl)-6,7-dihydro-2H-pyrido[2,1-a]phthalazine-3-carboxylic acid] displayed a CC50 at 5 days in data set [1] (MT-4 cells) greater than 10 µM. In addition, the EC50 in data set [2] was found to be 29.5 nM.

In the case of `COCCCOc1cc2c(cc1Cl)-c1cc(=O)c(C(=O)O)cn1N(C1(C(F)(F)F)CCC1)C2` [Example 4, 10-chloro-9-(3-methoxypropoxy)-2-oxo-6-(1-(trifluoromethyl)cyclobutyl)-6,7-dihydro-2H-pyrido[2,1-a]phthalazine-3-carboxylic acid], the half-maximal cytotoxic concentration (CC50) at 5 days in data set [1] (MT-4 cells) is 8.1 µM. The EC50 in data set [2] amounted to 11.2 nM.

In data set [1] (MT-4 cells), `COCCCOc1cc2c(cc1OC)-c1cc(=O)c(C(=O)O)cn1N(C(C)(C)C(F)(F)F)C2` [Example 15, 10-methoxy-9-(3-methoxypropoxy)-2-oxo-6-(1,1,1-trifluoro-2-methylpropan-2-yl)-6,7-dihydro-2H-pyrido[2,1-a]phthalazine-3-carboxylic acid] came in with a CC50 at 5 days greater than 10 µM. The EC50 in data set [2] amounted to 25.3 nM.

On to `COCCCOc1cc2c(cc1Cl)-c1cc(=O)c(C(=O)O)cn1N(C1(C)CC(F)(F)C1)C2` [Example 19, 10-chloro-6-(3,3-difluoro-1-methylcyclobutyl)-9-(3-methoxypropoxy)-2-oxo-6,7-dihydro-2H-pyrido[2,1-a]phthalazine-3-carboxylic acid], for which the CC50 at 5 days in data set [1] (MT-4 cells) was greater than 10 µM. The concentration giving a half-maximal response (EC50) in data set [2] was 99.2 nM.

Compound `COCCCOc1cc2c(cc1OC)-c1cc(=O)c(C(=O)O)cn1N(C(C)(C)C)C2` [Example 10, 6-(tert-butyl)-10-methoxy-9-(3-methoxypropoxy)-2-oxo-6,7-dihydro-2H-pyrido[2,1-a]phthalazine-3-carboxylic acid] registered a CC50 at 5 days in data set [1] (MT-4 cells) greater than 10 µM. The EC50 in data set [2] was 1.6 nM.

As for `[2H]C([2H])([2H])OCCCOc1cc2c(cc1Cl)-c1cc(=O)c(C(=O)O)cn1N(C(C)(C)C)C2` [Example 12, 6-(tert-butyl)-10-chloro-9-(3-(methoxy-d3)propoxy)-2-oxo-6,7-dihydro-2H-pyrido[2,1-a]phthalazine-3-carboxylic acid], in data set [1] (MT-4 cells), it took 9.3 µM to reach half-maximal cytotoxicity (CC50 at 5 days). Besides, the concentration for a half-maximal effect (EC50) in data set [2] is 7.7 nM.

Regarding `COCCCOc1cc2c(cc1OC)-c1cc(=O)c(C(=O)O)cn1N(C1(C(F)(F)F)CC1)C2` [Example 14, 10-methoxy-9-(3-methoxypropoxy)-2-oxo-6-(1-(trifluoromethyl)cyclopropyl)-6,7-dihydro-2H-pyrido[2,1-a]phthalazine-3-carboxylic acid], the cytotoxic concentration (CC50) at 5 days in data set [1] (MT-4 cells) is greater than 10 µM. Further, the half-maximal effective concentration (EC50) in data set [2] stood at 8.7 nM.
